Results from patent US8865756B2, “Inhibitors of HCV NS5A” (Presidio Pharmaceuticals, Inc., priority 2008, dated 2014).

The compounds below were run on HCV 1b_Huh-Luc/Neo-ET cell line persistently expressing a bicistronic genotype 1b replicon in Huh 7 cells (assay: HCV replicon assay (luciferase readout)). Settings: Hepatitis C virus, Huh-7, 72 h, read-out: Inhibition of HCV genotype 1b.
Type: cell-based
Description: Biological activity of the compounds of the invention was determined using an HCV replicon assay. The HCV 1b_Huh-Luc/Neo-ET cell line persistently expressing a bicistronic genotype 1b replicon in Huh 7 cells was obtained from ReBLikon GMBH. This cell line was used to test compound inhibition using luciferase enzyme activity readout as a measurement of compound inhibition of replicon levels.
On Day 1 (the day after plating), each compound is added in triplicate to the cells. Plates incubated for 72 h prior to running the luciferase assay. Enzyme activity was measured using a Bright-Glo Kit (cat. number E2620) manufactured by Promega Corporation. The following equation was used to generate a percent control value for each compound. % Control=(Average Compound Value/Average Control)*100
The EC50 value was determined using GraphPad Prism and the following equation: Y=Bottom+(Top−Bottom)/(1+10^((Log IC50−X)*HillSlope))
EC50 values of compounds are determined several times in the replicon assay.
Example compounds of the disclosed invention are illustrated in Tables 1-14 attached as appendices. The tables show inhibitory activity of many of the example compounds with respect to HCV 1b. […] The tables further provide mass spectrometry results for the synthesized example compounds.

| Structure (SMILES) | EC50 [nM] |
| --- | --- |
| CC(C)[C@@H](C(=O)N1CCC[C@H]1c1ncc(-c2ccc(C#Cc3ccc4nc([C@@H]5CCCN5C(=O)[C@H](C(C)C)N5CCOC5=O)[nH]c4c3)cc2)[nH]1)N1CCOC1=O [Compound 1039] | 1 to 9.9 |
| COC(=O)N[C@@H](C)C(=O)N1CCC[C@H]1c1ncc(-c2ccc(C#Cc3ccc4nc([C@@H]5CCCN5C(=O)[C@H](C)NC(=O)OC)[nH]c4c3)cc2)[nH]1 [Compound 1028] | < 1 |
| CC[C@@H](C)[C@H](NC(=O)OC)C(=O)N1CCC[C@H]1c1ncc(-c2ccc(C#Cc3ccc4nc([C@@H]5CCCN5C(=O)[C@@H](NC(=O)OC)[C@H](C)CC)[nH]c4c3)cc2)[nH]1 [Compound 1024] | < 1 |
| COC(=O)N[C@@H](C(=O)N1CCC[C@H]1c1ncc(-c2ccc(C#Cc3ccc(-c4cnc([C@@H]5CCCN5C(=O)[C@H](NC(=O)N5CCC[C@H](O)C5)c5ccccc5)[nH]4)cc3)cc2)[nH]1)c1ccccc1 [Compound 263] | < 1 |
| CC(C)(C)OC(=O)N[C@@H](C(=O)N1CCC[C@H]1C(=O)NCCc1ccc(C#Cc2cnc([C@@H]3CCCN3C(=O)[C@H](NC(=O)OC(C)(C)C)c3ccccc3)[nH]2)cc1)c1ccccc1 [Compound 124] | < 1 |
| CC(C)[C@@H](NC(=O)C1CC1)C(=O)N1CCC[C@H]1c1ncc(C#Cc2ccc(C#Cc3cnc([C@@H]4CCCN4C(=O)[C@H](NC(=O)C4CC4)C(C)C)[nH]3)cc2)[nH]1 [Compound 302] | > 1000 |
| COC[C@H]1CCCN1C(=O)N[C@@H](C(=O)N1CCC[C@H]1c1ncc(-c2ccc(C#Cc3ccc(-c4cnc([C@@H]5CCCN5C(=O)[C@H](NC(=O)OC)c5ccccc5)[nH]4)cc3)cc2)[nH]1)c1ccccc1 [Compound 259] | < 1 |
| CC(C)OC(=O)N[C@@H](C(=O)N1CCC[C@H]1c1ncc(-c2ccc(C#Cc3ccc(-c4cnc([C@@H]5CCCN5C(=O)[C@H](NC(=O)OC(C)C)c5ccccc5)[nH]4)cc3)cc2)[nH]1)c1ccccc1 [Compound 227] | < 1 |
| CC(C)[C@H](NC(=O)N1CCN(C)CC1)C(=O)N1CCC[C@H]1c1ncc(-c2ccc(C#Cc3ccc(-c4cnc([C@@H]5CCCN5C(=O)[C@@H](NC(=O)N5CCN(C)CC5)C(C)C)[nH]4)cc3)cc2)[nH]1 [Compound 287] | > 1000 |
| COC[C@@H]1CCCN1C(=O)N[C@@H](C(=O)N1CCC[C@H]1c1ncc(-c2ccc(C#Cc3ccc(-c4cnc([C@@H]5CCCN5C(=O)[C@H](NC(=O)OC)c5ccccc5)[nH]4)cc3)cc2)[nH]1)c1ccccc1 [Compound 260] | < 1 |
| COC(=O)N[C@@H](C(=O)N1CCC[C@H]1c1ncc(-c2ccc(C#Cc3ccc(-c4cnc([C@@H]5CCCN5C(=O)[C@H](NC(=O)N5CCC[C@@H](O)C5)c5ccccc5)[nH]4)cc3)cc2)[nH]1)c1ccccc1 [Compound 264] | < 1 |
| COC(=O)N[C@H](C(=O)N1CCC[C@H]1c1ncc(-c2ccc(C#Cc3ccc4nc([C@@H]5CCCN5C(=O)[C@H](NC(=O)OC)C(C)C)[nH]c4c3)cc2)[nH]1)C(C)C [Compound 1054] | < 1 |
| COC(=O)N[C@H](C(=O)N1CCC[C@H]1c1ncc(-c2ccc(C#Cc3ccc(-c4cnc([C@@H]5CCCN5C(=O)[C@@H](NC(=O)OC)C(C)(C)O)[nH]4)cc3)cc2)[nH]1)C(C)(C)O [Compound 993] | < 1 |
| COC(=O)N[C@H](C(=O)N1CCC[C@H]1c1ncc(-c2ccc(C#Cc3ccc4nc([C@@H]5CCCN5C(=O)[C@@H](NC(=O)OC)[C@H](C)O)[nH]c4c3)cc2)[nH]1)[C@H](C)O [Compound 1031] | < 1 |
| COC(=O)N[C@H](C(=O)N1CCC[C@H]1c1ncc(C#Cc2ccc(-c3ccc(-c4cnc([C@@H]5CCCN5C(=O)[C@@H](NC(=O)OC)C(C)C)[nH]4)cc3)cc2)[nH]1)C(C)C [Compound 756] | < 1 |
| C(#Cc1ccc2nc([C@@H]3CCCN3)[nH]c2c1)c1ccc(-c2cnc([C@@H]3CCCN3)[nH]2)cc1 [Compound 1035] | 10 to 999 |
| COC(=O)N[C@@H](C)C(=O)N1CCC[C@H]1c1ncc(-c2ccc(C#Cc3ccc(-c4cnc([C@@H]5CCCN5C(=O)[C@H](NC(=O)OC)c5ccccc5)[nH]4)cc3)cc2)[nH]1 [Compound 1004] | < 1 |
| COC(=O)N[C@@H](C(=O)N1CCC[C@H]1c1ncc(-c2ccc(C#Cc3ccc(-c4cnc([C@@H]5CCCN5C(=O)[C@H](NC(=O)N5CCN(C)CC5)c5ccccc5)[nH]4)cc3)cc2)[nH]1)c1ccccc1 [Compound 240] | < 1 |
| CN1CCN(C(=O)N[C@@H](C(=O)N2CCC[C@H]2c2ncc(-c3ccc(C#Cc4ccc(-c5cnc([C@@H]6CCCN6C(=O)[C@H](NC(=O)C6CC6)c6ccccc6)[nH]5)cc4)cc3)[nH]2)c2ccccc2)CC1 [Compound 238] | < 1 |
| COC(=O)N[C@H](C(=O)N1CCC[C@H]1c1nc2c([nH]1)-c1ccc(C#Cc3ccc(-c4cnc([C@@H]5CCCN5C(=O)[C@H](NC(=O)OC)c5ccccc5)[nH]4)cc3F)cc1CC2)C(C)C [Compound 1098] | < 1 |

| Structure (SMILES) | EC50 [nM] |
| --- | --- |
| CS(=O)(=O)N[C@@H](C(=O)N1CCC[C@H]1c1ncc(-c2ccc(C#Cc3ccc(-c4cnc([C@@H]5CCCN5C(=O)[C@@H](c5ccccc5)N5CCOCC5)[nH]4)cc3)cc2)[nH]1)c1ccccc1 [Compound 232] | < 1 |
| COC(=O)N[C@@H](C(=O)N1CCC[C@H]1c1nc2ccc(C#Cc3ccc4nc([C@@H]5CCCN5C(=O)[C@H](NC(=O)OC)C(C)C)[nH]c4c3)cc2[nH]1)C(C)C [Compound 853] | < 1 |
| O=C(N[C@@H](C(=O)N1CCC[C@H]1c1cc(-c2ccc(C#Cc3ccc(-c4cnc([C@@H]5CCCN5C(=O)[C@H](NC(=O)[C@@H]5CCCO5)c5ccccc5)[nH]4)cc3)cc2)n[nH]1)c1ccccc1)[C@@H]1CCCO1 [Compound 214] | < 1 |
| COC(=O)N[C@@H](C(=O)N1CCC[C@H]1c1ncc(-c2ccc(C#Cc3ccc(-c4cnc([C@@H]5CCCN5C(=O)[C@H](NC(=O)[C@H]5CCCN5)c5ccccc5)[nH]4)cc3)cc2)[nH]1)c1ccccc1 [Compound 207] | < 1 |
| COC(=O)N[C@H](C(=O)N1CCC[C@H]1c1ncc(-c2ccc(C#Cc3ccc4nc([C@@H]5CCCN5C(=O)[C@H](C(C)C)N(C)C)[nH]c4c3)cc2)[nH]1)C(C)C [Compound 1021] | < 1 |
| O=C(N[C@@H](C(=O)N1CCC[C@H]1c1ncc(-c2ccc(C#Cc3ccc(-c4cnc([C@@H]5CCCN5C(=O)[C@H](NC(=O)N5CCC(O)CC5)c5ccccc5)[nH]4)cc3)cc2)[nH]1)c1ccccc1)N1CCC(O)CC1 [Compound 251] | < 1 |
| C[C@@H](NC(=O)[C@@H]1CCCN1C(=O)[C@H](NC(=O)OC(C)(C)C)c1ccccc1)c1ccc(C#Cc2ccc(-c3cnc([C@@H]4CCCN4C(=O)[C@H](NC(=O)OC(C)(C)C)c4ccccc4)[nH]3)cc2)cc1 [Compound 167] | 1 to 9.9 |
| CN(C)C(=O)N[C@@H](C(=O)N1CCC[C@H]1c1cc(-c2ccc(C#Cc3ccc(-c4cnc([C@@H]5CCCN5C(=O)[C@H](NC(=O)N(C)C)c5ccccc5)[nH]4)cc3)cc2)n[nH]1)c1ccccc1 [Compound 221] | < 1 |
| CC1(O)CCC(C(=O)N[C@@H](C(=O)N2CCC[C@H]2c2nc(-c3ccc4cc(C#Cc5cnc([C@@H]6CCCN6C(=O)[C@H](NC(=O)N6CCC(C)(O)CC6)c6ccccc6)[nH]5)ccc4c3)c[nH]2)c2ccccc2)CC1 (stereo partly drawn) [Compound 805] | < 1 |
| CC(C)[C@H](NC(=O)N1CC[C@H](O)C1)C(=O)N1CCC[C@H]1c1ncc(-c2ccc(C#Cc3ccc(-c4cnc([C@@H]5CCCN5C(=O)[C@@H](NC(=O)N5CC[C@H](O)C5)C(C)C)[nH]4)cc3)cc2)[nH]1 [Compound 988] | 10 to 999 |
| COC(=O)N[C@@H](C(=O)N1CCC[C@H]1c1ncc(-c2ccc(C#Cc3ccc(-c4cnc([C@@H]5CCCN5C(=O)[C@H](NC(=O)[C@@H]5CCCN5)c5ccccc5)[nH]4)cc3)cc2)[nH]1)c1ccccc1 [Compound 206] | < 1 |
| CC(C)[C@@H](NC(=O)C1CC1)C(=O)N1CCC[C@H]1c1ncc(-c2ccc(C#Cc3ccc(-c4cnc([C@@H]5CCCN5C(=O)[C@H](NC(=O)C5CC5)C(C)C)[nH]4)cc3)cc2)[nH]1 [Compound 155] | 1 to 9.9 |
| CC(C)[C@H](NC(=O)OC(C)(C)C)C(=O)N1CCC[C@H]1c1ncc(-c2ccc(C#Cc3ccc(-c4cnc([C@@H]5CCCN5C(=O)[C@@H](NC(=O)OC(C)(C)C)C(C)C)[nH]4)cc3)cc2)[nH]1 [Compound 165] | 10 to 999 |
| CC(C)[C@@H](NC(=O)C1CC1)C(=O)N1CCC[C@H]1C(=O)Nc1ccc(C#Cc2cnc([C@@H]3CCCN3C(=O)[C@H](NC(=O)C3CC3)C(C)C)[nH]2)cc1 [Compound 116] | 1 to 9.9 |
| COC(=O)N[C@@H](C(=O)N1CCC[C@H]1c1ncc(C#Cc2ccc(C#Cc3cnc([C@@H]4CCCN4C(=O)[C@@H](c4ccccc4)N4CCCC4)[nH]3)cc2)[nH]1)c1ccccc1 [Compound 311] | < 1 |
| COC(=O)N[C@H](C(=O)N1CCC[C@H]1c1ncc(-c2ccc(C#Cc3ccc(-c4cnc([C@@H]5CCCN5C(=O)[C@@H](NC(=O)OC)C(C)(C)O)[nH]4)cc3)cc2)[nH]1)C(C)C [Compound 994] | < 1 |
| CC(C)(C)OC(=O)NCC(=O)N1CCC[C@H]1c1ncc(C#Cc2ccc(-c3cnc([C@@H]4CCCN4C(=O)CNC(=O)OC(C)(C)C)[nH]3)cc2)[nH]1 [Compound 103] | 10 to 999 |
| COC(=O)N[C@H](Cc1ccccc1)C(=O)N1CCC[C@H]1c1ncc(-c2ccc(C#Cc3ccc(-c4cnc([C@@H]5CCCN5C(=O)[C@H](NC(=O)OC)c5ccccc5)[nH]4)cc3)cc2)[nH]1 [Compound 180] | < 1 |
| CC(C)[C@@H](NC(=O)OC(C)(C)C)C(=O)N1CCC[C@H]1C(=O)NCCc1ccc(C#Cc2cnc([C@@H]3CCCN3C(=O)[C@H](NC(=O)OC(C)(C)C)C(C)C)[nH]2)cc1 [Compound 126] | 10 to 999 |
